The values below are quoted from earlier work in US20180346488A1, “CYTOTOXIC BENZODIAZEPINE DERIVATIVES AND CONJUGATES THEREOF” (priority 2017, published 2018).

SMILES strings stand for the structures.

The conditions of this data set: Phase I clinical evaluation; cited from earlier work.

Consider `C=C1C[C@H]2C=Nc3cc(OCCCOc4cc5c(cc4OC)C(=O)N4CC(=C)C[C@H]4C=N5)c(OC)cc3C(=O)N2C1` [SJG-136], for which the “DNA damage in circulating lymphocytes” value is reported as “noted at all doses”; the adverse effects noted result was “vascular leak syndrome, peripheral edema, liver toxicity and fatigue”; the maximum tolerated dose is 45 μg/m^2.
